The test system of the assay is C666-1 cells. The assay is described as follows: C666-1 cell viability single concentration (50 μM) inhibition rate (Resazurin). Type of assay: cell-based. As to conditions: Homo sapiens, C6661, 72 h, read-out: C666-1 cell viability single concentration (50 μM) inhibition rate, Ratio* (Inh %). In outline:
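Resazurin fluorescence (560/590 nm, 3 h development) gave the proliferation inhibition rate, normalised to DMSO-treated and cell-free blank wells. Compound was tested at a single 50 μmol/L final concentration on C666-1 cells for 72 h at 37° C, with duplicate wells, after 24 h seeding.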
(In general: Resazurin is reduced to fluorescent resorufin, in cell work by metabolically active cells.)

Setting [1] is: 50 μM compound, 72 hours, C666-1 cells.

Molecules are shown by their SMILES. Read-outs that look alike come from different tables or passages of the source.

With `CNCCOc1ccc(OC2CN(c3cccc(C(=O)OC)c3-n3cccc3)C2)cc1` [Example 309, Methyl 3-(3-(4-(2-(methylamino)ethoxy)phenoxy)azetidin-1-yl)-2-(1H-pyrrol-1-yl)benzoate], the inhibition at 50 µM under setting [1] is 10 to 30%.

Consider `COC(=O)c1cccc(N2CC(Oc3ccc(OCCN)cc3)C2)c1-n1cccc1` [Example 310, Methyl 3-(3-(4-(2-aminoethoxy)phenoxy)azetidin-1-yl)-2-(1H-pyrrol-1-yl)benzoate], for which, under setting [1], the inhibition at 50 µM is below 10%.

Take `COC(=O)c1cccc(N2CC(Oc3ccc(OCCN)c(OC)c3)C2)c1-n1cccc1` [Example 311, Methyl 3-(3-(4-(2-aminoethoxy)-3-methoxyphenoxy)azetidin-1-yl)-2-(1H-pyrrol-1-yl)benzoate]: under setting [1], the inhibition at 50 µM lay in the range of 10 to 30%.

With `COC(=O)c1cccc(N2CC(Oc3ccc(OCCNC(C)=O)cc3)C2)c1-n1cccc1` [Example 312, Methyl 3-(3-(4-(2-acetylaminoethoxy)phenoxy)azetidin-1-yl)-2-(1H-pyrrol-1-yl)benzoate], the inhibition at 50 µM under setting [1] was in the range of 30 to 50%.

For the compound `CC(=O)NCCOc1ccc(OC2CN(c3cccc(C(=O)O)c3-n3cccc3)C2)cc1` [Example 313, 3-(3-(4-(2-acetylaminoethoxy)phenoxy)azetidin-1-yl)-2-(1H-pyrrol-1-yl)benzoic acid], the inhibition at 50 µM under setting [1] was below 10%.

Consider `COC(=O)c1cccc(C#CN(Cc2ccco2)S(=O)(=O)c2ccc(C)cc2)c1-n1cccc1` [Example 314, Methyl 3-(((N-(furan-2-yl-methyl)-4-methylphenyl)sulfonamido)ethynyl)-2-(1H-pyrrol-1-yl)benzoate], for which, under setting [1], the inhibition at 50 µM was below 10%.

On to `Cc1ccc(S(=O)(=O)N(C#Cc2cccc(C(=O)O)c2-n2cccc2)Cc2ccco2)cc1` [Example 315, Lithium 3-(((N-(furan-2-yl-methyl)-4-methylphenyl)sulfonamido)ethynyl)-2-(1H-pyrrol-1-yl)benzoate], for which the inhibition at 50 µM is above 50%.

Take `COC(=O)c1cccc(C#CN(Cc2ccc3c(ccn3C)c2)S(=O)(=O)c2ccc(C)cc2)c1-n1cccc1` [Example 316, Methyl 3-(((4-methyl-N-((1-methyl-1H-indol-5-yl)methyl)phenyl)sulfonamido)ethynyl)-2-(1H-pyrrol-1-yl)benzoate]: the inhibition at 50 µM under setting [1] was below 10%.

Consider `Cc1ccc(S(=O)(=O)N(C#Cc2cccc(C(=O)O)c2-n2cccc2)Cc2ccc3c(ccn3C)c2)cc1` [Example 317, Lithium 3-(((4-methyl-N-((1-methyl-1H-indol-5-yl)methyl)phenyl)sulfonamido)ethynyl)-2-(1H-pyrrol-1-yl)benzoate], for which the inhibition at 50 µM was 10 to 30%.

With `COC(=O)c1cccc(C#CN(CC2CCN(C)CC2)S(=O)(=O)c2ccc(C)cc2)c1-n1cccc1` [Example 318, Methyl 3-(((4-methyl-N-((1-methylpiperidin-4-yl)methyl)phenyl)sulfonamido)ethynyl)-2-(1H-pyrrol-1-yl)benzoate], the inhibition at 50 µM under setting [1] is above 50%.

Turning to `Cc1ccc(S(=O)(=O)N(C#Cc2cccc(C(=O)O)c2-n2cccc2)CC2CCN(C)CC2)cc1` [Example 319, Lithium 3-(((4-methyl-N-((1-methylpiperidin-4-yl)methyl)phenyl)sulfonamido)ethynyl)-2-(1H-pyrrol-1-yl)benzoate], the inhibition at 50 µM was above 50%.

Turning to `COC(=O)c1cccc(C#CN(Cc2ccccc2)S(=O)(=O)c2csc3ccccc23)c1-n1cccc1` [Example 320, Methyl 3-((N-benzylbenzo[b]thiophen-3-sulfonamido)ethynyl)-2-(1H-pyrrol-1-yl)benzoate], the inhibition at 50 µM under setting [1] was below 10%.

In the case of `O=C(O)c1cccc(C#CN(Cc2ccccc2)S(=O)(=O)c2csc3ccccc23)c1-n1cccc1` [Example 321, Lithium 3-((N-benzylbenzo[b]thiophen-3-sulfonamido)ethynyl)-2-(1H-pyrrol-1-yl)benzoate], the inhibition at 50 µM was below 10%.

In the case of `COC(=O)c1cccc(C#CN(Cc2ccccc2)S(=O)(=O)c2cccs2)c1-n1cccc1` [Example 322, Methyl 3-((N-benzylthiophen-2-sulfonamido)ethynyl)-2-(1H-pyrrol-1-yl)benzoate], under setting [1], the inhibition at 50 µM is 10 to 30%.

In the case of `O=C(O)c1cccc(C#CN(Cc2ccccc2)S(=O)(=O)c2cccs2)c1-n1cccc1` [Example 323, Lithium 3-((N-benzylthiophen-2-sulfonamido)ethynyl)-2-(1H-pyrrol-1-yl)benzoate], the inhibition at 50 µM was below 10%.

For the compound `COC(=O)c1cccc(C#CN(Cc2ccccc2F)S(=O)(=O)c2cccs2)c1-n1cccc1` [Example 324, Methyl 3-((N-(2-fluorobenzyl)thiophen-2-sulfonamido)ethynyl)-2-(1H-pyrrol-1-yl)benzoate], under setting [1], the inhibition at 50 µM is 10 to 30%.

For `O=C(O)c1cccc(C#CN(Cc2ccccc2F)S(=O)(=O)c2cccs2)c1-n1cccc1` [Example 325, Lithium 3-((N-(2-fluorobenzyl)thiophen-2-sulfonamido)ethynyl)-2-(1H-pyrrol-1-yl)benzoate], the inhibition at 50 µM was 30 to 50%.

Turning to `COC(=O)c1cccc(C#CN(Cc2ccc(F)cc2)S(=O)(=O)c2cccs2)c1-n1cccc1` [Example 326, Methyl 3-((N-(4-fluorobenzyl)thiophen-2-sulfonamido)ethynyl)-2-(1H-pyrrol-1-yl)benzoate], under setting [1], the inhibition at 50 µM is 30 to 50%.

Regarding `O=C(O)c1cccc(C#CN(Cc2ccc(F)cc2)S(=O)(=O)c2cccs2)c1-n1cccc1` [Example 327, Lithium 3-((N-(4-fluorobenzyl)thiophen-2-sulfonamido)ethynyl)-2-(1H-pyrrol-1-yl)benzoate], the inhibition at 50 µM is above 50%.

As for `COC(=O)c1cccc(C#CN(Cc2cccs2)S(=O)(=O)c2ccc(C)cc2)c1-n1cccc1` [Example 328, Methyl 3-(((4-methyl-N-(thiophen-2-yl-methyl)phenyl)sulfonamido)ethynyl)-2-(1H-pyrrol-1-yl)benzoate], under setting [1], the inhibition at 50 µM was in the range of 10 to 30%.

`Cc1ccc(S(=O)(=O)N(C#Cc2cccc(C(=O)O)c2-n2cccc2)Cc2cccs2)cc1` [Example 329, Lithium 3-(((4-methyl-N-(thiophen-2-yl-methyl)phenyl)sulfonamido)ethynyl)-2-(1H-pyrrol-1-yl)benzoate]: the inhibition at 50 µM was above 50%.

For `COC(=O)c1cccc(C#CN(Cc2ccccc2)S(=O)(=O)c2ccc3occc3c2)c1-n1cccc1` [Example 330, Methyl 3-((N-benzylbenzofuran-5-sulfonamido)ethynyl)-2-(1H-pyrrol-1-yl)benzoate], the inhibition at 50 µM under setting [1] was above 50%.

In the case of `O=C(O)c1cccc(C#CN(Cc2ccccc2)S(=O)(=O)c2ccc3occc3c2)c1-n1cccc1` [Example 331, Lithium 3-((N-benzylbenzofuran-5-sulfonamido)ethynyl)-2-(1H-pyrrol-1-yl)benzoate], the inhibition at 50 µM was below 10%.

As to `COC(=O)c1cccc(C#CN(Cc2ccc(CO)cc2)S(=O)(=O)c2ccc(C)cc2)c1-n1cccc1` [Example 332, Methyl 3-(((N-(4-(hydroxymethyl)benzyl)-4-methylphenyl)sulfonamido)ethynyl)-2-(1H-pyrrol-1-yl)benzoate], under setting [1], the inhibition at 50 µM is above 50%.

`Cc1ccc(S(=O)(=O)N(C#Cc2cccc(C(=O)O)c2-n2cccc2)Cc2ccc(CO)cc2)cc1` [Example 333, Lithium 3-(((N-(4-(hydroxymethyl)benzyl)-4-methylphenyl)sulfonamido)ethynyl)-2-(1H-pyrrol-1-yl)benzoate]: the inhibition at 50 µM is above 50%.

With `COC(=O)c1cccc(C#CN(Cc2ccc3c(ccn3C)c2)S(=O)(=O)c2csc3ccccc23)c1-n1cccc1` [Example 334, Methyl 3-((N-((1-methyl-1H-indol-5-yl)methyl)benzo[b]thiophen-3-sulfonamido)ethynyl)-2-(1H-pyrrol-1-yl)benzoate], the inhibition at 50 µM under setting [1] was above 50%.

As to `Cn1ccc2cc(CN(C#Cc3cccc(C(=O)O)c3-n3cccc3)S(=O)(=O)c3csc4ccccc34)ccc21` [Example 335, Lithium 3-((N-((1-methyl-1H-indol-5-yl)methyl)benzo[b]thiophen-3-sulfonamido)ethynyl)-2-(1H-pyrrol-1-yl)benzoate], the inhibition at 50 µM is below 10%.

Turning to `COC(=O)c1cccc(C#CN(Cc2ccc(C(F)(F)F)cc2)S(=O)(=O)c2cccs2)c1-n1cccc1` [Example 336, Methyl 3-((N-(4-(trifluoromethyl)benzyl)thiophen-2-sulfonamido)ethynyl)-2-(1H-pyrrol-1-yl)benzoate], under setting [1], the inhibition at 50 µM is below 10%.

`O=C(O)c1cccc(C#CN(Cc2ccc(C(F)(F)F)cc2)S(=O)(=O)c2cccs2)c1-n1cccc1` [Example 337, Lithium 3-((N-(4-(trifluoromethyl)benzyl)thiophen-2-sulfonamido)ethynyl)-2-(1H-pyrrol-1-yl)benzoate]: the inhibition at 50 µM is 10 to 30%.

With `COC(=O)c1cccc(C#CN(Cc2ccc3c(ccn3C)c2)S(=O)(=O)c2ccc3occc3c2)c1-n1cccc1` [Example 338, Methyl 3-((N-((1-methyl-1H-indol-5-yl)methyl)benzofuran-5-sulfonamido)ethynyl)-2-(1H-pyrrol-1-yl)benzoate], the inhibition at 50 µM under setting [1] is below 10%.

With `Cn1ccc2cc(CN(C#Cc3cccc(C(=O)O)c3-n3cccc3)S(=O)(=O)c3ccc4occc4c3)ccc21` [Example 339, Lithium 3-((N-((1-methyl-1H-indol-5-yl)methyl)benzofuran-5-sulfonamido)ethynyl)-2-(1H-pyrrol-1-yl)benzoate], the inhibition at 50 µM is below 10%.

With `COC(=O)c1cccc(C#CN(Cc2ccccc2)S(=O)(=O)c2ccccc2)c1-n1cccc1` [Example 340, Methyl 3-((N-benzyl-N-phenylsulfonamido)ethynyl)-2-(1H-pyrrol-1-yl)benzoate], the inhibition at 50 µM under setting [1] was below 10%.

For the compound `O=C(O)c1cccc(C#CN(Cc2ccccc2)S(=O)(=O)c2ccccc2)c1-n1cccc1` [Example 341, 3-((N-benzyl-N-phenylsulfonamido)ethynyl)-2-(1H-pyrrol-1-yl)benzoic acid], the inhibition at 50 µM is below 10%.

Values taken from patent US20230157996A1, “SMALL-MOLECULE INHIBITOR TARGETING EB VIRUS NUCLEAR ANTIGEN PROTEIN, PREPARATION METHOD AND USE THEREOF” (priority 2020, published 2023).
